Data: patent publication US20060062793A1, “Modified antibodies to prostate-specific membrane antigen and uses thereof” (priority 2004, published 2006)

How the values were obtained:
[1] = test system: PSMA-positive CWR22 xenografts; test: deJ591-DM1 efficacy in PSMA-positive CWR22 xenografts in scid mice; type: in vivo, mouse
Experimental: Experiment: Male SCID mice were implanted by serial passage of CWR22 prostate tumor xenograft. […] All treatments were given intravenously. Tumor growth and animal health were continually monitored throughout the study with tumor growth measured every 3 days.
Experiment: Male C.B-17 SCID mice bearing CWR22 xenografts approximately 200 mm^3 in size received IV injections (200 μL constant volume) of the test articles according to the dose and schedule as shown in Table 22.
Male C.B-17 scid mice bearing CWR22 xenografts approximately 200 mm^3 in size received IV injections (200 μL constant volume) of the test articles according to the dose and schedule shown in the Table 23.
The objective of this study was to determine how much the dosing interval could be increased at this dosage before a loss of efficacy in terms of TGD would be observed. […] The growth delays for the other schedules were: q7d, 53.0 days; q21d, 48.0 days; and q28d, 26.9 days. Similar to other studies using the CWR22 xenograft model, no curative responses were observed, with all tumors eventually resuming growth (FIG. 18).
Experiment: Male SCID mice were implanted by serial passage of CWR22 prostate tumor xenograft. […] All treatments were given intravenously and on a schedule of every three days for 5 doses. Tumor growth and animal health were continually monitored throughout the study with tumor growth measured every 3 days.
Experiment: Male SCID mice were implanted by serial passage of CWR22 prostate tumor xenograft. […] All treatments were given intravenously and on a schedule of every seven days for 5 doses. Tumor growth and animal health were continually monitored throughout the study with tumor growth measured every 3 days.

prostate tissue = test: Immunohistochemistry of DOTA conjugated deJ591
Experimental: Immunohistochemistry was performed on the DOTA conjugated, partially purified, bulk intermediate deJ591.

[2] = test system: PSMA-positive human LNCaP tumors; test: Biodistribution of 111In labeled MAbs in nude mice bearing LNCaP tumors; type: in vivo, mouse
Experimental: (§1) Prior to use, the cells were trypsinized, counted and suspended in Matrigel (Collaborative Biomedical Products, Bedford, Mass.). Nu/Nu Balb C mice 8-10 weeks of age were inoculated, in the right and left flanks, with a suspension of 5×10^6 LNCaP cells in Matrigel (BD Biosciences, Bedford Mass.). After a period of 14-18 days, tumors (100-300 mg) had developed. The PSMA-negative DU145 and PC3 cells were implanted in nude mice in an identical manner.
(§2) The PSMA-positive and PSMA-negative tumor bearing mice were injected, via the tail vein, with 80 KBq of the iodinated MAb (400 MBq/mg) in 200 μL of PBS (pH 7.4, 0.2% BSA). Groups of animals (3-8/group) were sacrificed after 2, 4 or 6 days. The major organs and tumors were recovered. The tissue samples were weighed and counted, with appropriate standards in an automatic NaI(Tl) counter. These measured relative activity data (cpm) were background corrected and expressed as a percentage of the injected dose per gram (% ID/g). […] J415, J591 and 7E11 were labeled with ^111In (100 MBq/mg). 80 KBq of the ^111In labeled MAbs were injected in groups of animals. The % ID/g in various organs and tumor tissues was determined at 2-6 days post injection in a similar way as described for ^131I labeled MAbs.

LNCaP tumor sections = type: in vivo, mouse
[3] = test system: androgen-independent PSMA-positive 22RV1 xenograft; test: deJ591-DM1 efficacy in castrate or intact scid mice bearing 22RV1 xenograft; type: in vivo, mouse
Experimental: Prostate tumors can be broadly classified as either androgen-dependent or androgen-independent. […] The 22RV1 cell line was originally developed as androgen-independent and can be grown as a xenograft in C.B-17 scid mice that have been left either intact or castrated. […] This was approximately twice the time required for the tumors of intact mice to reach 1000 mm^3 (9.3 days). C.B-17 scid mice bearing CWR22 xenografts approximately 200 mm^3 in size received IV injections (200 μL constant volume) of the test articles according to the dosage and schedule shown in the Table 24.

LNCaP tumor = test: Gamma camera imaging of nude mice with 111In-DOTA-J591; type: in vivo, mouse; conditions: days 1-6
Experimental: For the imaging studies, animals were injected with 2 MBq of ^111In-DOTA-J591. On days 1, 2, 3, 4 and 6 post-injection, the mice were sedated with ketamine/xylazine 100 mg/kg/10 mg/kg IP. The mice were imaged with a gamma camera (Transcam, ADAC Laboratories, Milpitas, Calif.) equipped with a pinhole collimator. The images were acquired in a 256×256 matrix for 1000 seconds using a 20% window of 245 KeV photopeak of ^111In.

[4] = test system: recurrent, progressing prostate cancer; test: Phase I trial of four weekly doses of 111In-DOTA-deJ591; set-up: species or system human; conditions: in vivo
Experimental: Patients with recurrent, progressing prostate cancer received four weekly doses of ^111In-DOTA-deJ591. Doses were escalated in cohorts of three patients and ranged from 62.5-500 mg/m2 (total). […] After the first dose, patients were imaged on the day of injection (day 0) and days 1, 2, 4 and 7.
Serum PK, immune reaction and toxicity were evaluated after each dose for a minimum of 12 weeks.

[5] = test system: hormone refractory prostate cancer; test: 111In-DOTA-deJ591 targeting of hormone refractory prostate cancer (single 20 mg dose, imaging); type: in vivo, human
[6] = test system: hormone-independent prostate cancer; test: Phase I trial of trace-labeled 131I-J591 (murine) in hormone-independent prostate cancer patients; type: in vivo, human
Experimental: Hormone-independent patients with rising PSA levels and acceptable hematologic, hepatic and renal function received a single dose of murine mAb J591. Doses are escalated (from 0.5-300 mg) in groups of three to six patients. Each dose included ≦1.0 mg J591 labeled with 10 mCi ^131I iodine as a tracer plus “cold” mAb. The dose levels used ranged from 0.5 to 300.0 mg as follows: 0.5 mg, 1.0 mg, 2.0 mg, 5.0 mg, 10 mg, 25 mg, 50 mg, 100 mg, 125 mg, 150 mg, 200 mg, 250 mg, and 300 mg. Blood and urine were collected to monitor pharmacokinetics, toxicity and human anti-mouse antibody (HAMA) response. Patients were imaged on the day of injection (day 0), as well as days 2, 4 and 6 to track mAb targeting.

[7] = test system: PSMA-negative DU145 tumors; type: in vivo, mouse; conditions: 4 days post injection, DU145 tumors (n=6)
Experimental: as §1, §2
(§3) The uptake in lungs, kidney, muscle was similar with all three antibodies.

PSMA-negative PC3 tumors = type: in vivo, mouse; conditions: 4 days post injection, PC3 tumors (n=10)
Experimental: as §1, §2, §3

[8] = test system: metastatic androgen-independent prostate cancer; test: Phase 1 ascending dose trial of DM1 conjugated deJ591 in metastatic androgen-independent prostate cancer; type: in vivo, human
Experimental: Based upon emerging clinical safety and PK, repeat dosing at four week intervals was subsequently permitted.
DLT is defined as the occurrence of one or more of the following: • Hematologic: Grade 4 thrombocytopenia (platelet count <10,000/mm3) • Requirement for platelet transfusion and/or other methods to increase platelet count • Febrile neutropenia (ANC<1000/mm^3 concurrent with a temperature >38.5° C.). (Per the Infection/Febrile Neutropenia subsection of the NCI CTC version 2.0, febrile neutropenia is, by definition, a >Grade 3 toxicity) • Grade 4 neutropenia without fever of >7 days duration • Grade 3 neutropenia requiring granulocyte colony-stimulating factor (G-CSF) administration • Grade 4 anemia (hemoglobin <6.5 g/dL) • Grade 3 anemia (hemoglobin 6.5-<8.0 g/dL) in a subject receiving EpogenÒNon-hematologic • Any Grade 3 non-hematologic toxicity considered by the investigator to be possibly related to study drugMTD is defined as the highest dose level with an observed incidence of DLT in no more than 1 out of 6 subjects. […]
The starting dose is 18 mg/m2. […] Dose escalation will continue until DLT and MTD are determined. […] Subsequent dose escalation and enrollment will be determined by the number and grade of toxicities observed in these two additional subjects. […] The previous dose level will be evaluated as potential MTD. […]

[9] = 14.5 mg/kg, 7 and 14 day dosing interval

COc1cc2cc(c1Cl)N(C)C(=O)C[C@H](OC(=O)[C@H](C)N(C)C(C)=O)[C@]1(C)O[C@H]1[C@H](C)[C@@H]1C[C@@](O)(NC(=O)O1)[C@H](OC)/C=C/C=C(\C)C2 [Maytansine, reference compound]
Tumor Growth Delay ([1]; 240 μg/kg (240 μg/kg DM1-equivalents), qdX5, IV, Comparison I): 17.7 days

DOTA-deJ591
tissue specificity by immunohistochemistry (prostate tissue): specific to prostate tissue
reactivity by immunohistochemistry (prostate tissue; compared with naked deJ591): equivalent to the naked deJ591 antibody

J591: murine monoclonal antibody to the extracellular domain of human PSMA; hybridoma ATCC HB-12126
kinetics of blood clearance [2]: faster compared to 7E11
intra-tumoral distribution pattern (LNCaP tumor sections; 131I-labeled, 4 to 6 days after intravenous injection): distinct preferential accumulation in areas of viable tumor

MLN2704
Tumor Growth Delay ([3]; Castrate mice, 22RV1 xenograft, 240 μg/kg DM1-equivalents, q7dX5): 21.4 days

^111In-DOTA-deJ591
tumor accumulation on serial gamma camera images (LNCaP tumor): intense tumor accumulation
mAb targeting to non-prostate cancer sites [4]: No mAb targeting to non-prostate cancer sites was noted
Plasma clearance (T1/2) ([5]; 20 mg deJ591): 34 ± 5 h
Liver uptake ([5]; day 6): 27±1.7%
accumulation in the prostate gland ([5]; patients with intact but irradiated prostate): generally minimal
absorbed dose by the liver ([5]; with 111In): 2.8±0.25 rads/mCi

^131I-J591: murine mAb J591 labeled with 131I iodine
binding pattern, ex vivo autoradiography (LNCaP tumor sections; incubated directly on the tissue section): homogeneous binding pattern
adverse events related to the murine antibody ([6]; 33 patients): Only one patient had an adverse event related to the murine antibody
positive monoclonal antibody scans among patients with positive soft tissue (CT scans) ([6]; eight out of nine): about 90%
human anti-murine antibody (HAMA) response ([6]; human, in vivo): Eight out of sixteen evaluable patients
patients in whom known sites of prostate cancer metastases can be imaged ([6]; patients with disease sites imaged by conventional studies): approximately 80%
positive monoclonal antibody scans among patients with positive bone scans ([6]; twenty-four out of twenty-seven): about 90%

^131I-deJ591
tumor uptake [7]: 0.55±0.03 % ID/g
tumor uptake (PSMA-negative PC3 tumors): 0.66±0.07 % ID/g

deJ591-DM1: deJ591 conjugated via SPP disulfide linker to the maytansinoid cytotoxin DM1
resumption of normal growth kinetics after the last dose [1, 9]: approximately 30 days
tumor growth [1, 9]: apparent block in tumor growth
suppression of tumor growth following the last administered dose ([1]; 14.5 mg/kg, every three days for 5 doses, IV): approximately 20 days
Efficacious dosage in SCID mouse xenografts, DM1-Equivalents received ([1]; SCID mouse xenografts, DM1-equivalents): ˜0.72 mg/m^2
tumor growth inhibitory effect ([1]; doses and schedules of Comparison I, non-curative): substantial tumor growth inhibitory effect
effect on large tumors (500 to 2000 mm^3) ([1]; second course, 12.93 mg/kg): potent regressions in large tumors
TGD compared to DM1 at equivalent dose and schedule ([3]; androgen-intact mice, q3d schedule): better TGD
dose-limiting toxicity ([8]; highest dose level 343 mg/m^2): Only one DLT, an uncomplicated febrile neutropenia
tumor response ([8]; one patient, 264 mg/m^2): PR by RECIST criteria
